Values joined by “and” are separate entries in the source; they are usually repeats but may differ in a detail not shown here. Equal entries are not always repeated. “Also recorded” adds a separate entry of the source.
Assays:
[1] = system: HDM2, p53Y220C and p21 in Huh7 cells; assay: Western blot analysis of HDM2, p53 and p21; assay type: cell-based, human
Experimental: Huh7 cells were incubated with spiroligomer 1 and Nutlin-3 in media at 2, 5, 10 and 20 µM for 17 hours at 37°C. […] Huh7 cells were then incubated with 1 at 15 µM and cells were harvested at 2, 4, 6, 8, 12 and 24 hours. […]
Cell Culture and Treatment. HepG2 (expressing wild-type p53) and Huh7 (expressing mutant p53) cell lines were purchased from the American Type Culture Collection (ATCC) and cultured as monolayers in Dulbecco’s modified Eagle’s medium (DMEM) (Invitrogen) supplemented with 100 mM nonessential amino acid solution, 100 mM sodium pyruvate, 100 U/mL penicillin, 100 μg/mL streptomycin, and 10% heat inactivated fetal bovine serum (FBS) (all from Hyclone).
Cells were maintained at 37° C and 5% CO2 and were treated with media that contained 0.5%
FBS. Nutlin-3 (Sigma) was dissolved in 0.01% DMSO (Sigma).
Both nutlin-3 and spiroligomers were added into the medium for final concentrations of 2 µM, 5 µM, 10 µM and 20 µM for 24 hours. For the western blot experiments detailed below, the time length for incubation with bis-peptide was 17 hours. […]
Western Blotting. For protein extraction, cells were lysed in cell lysis buffer (Cell Signaling) with a protease inhibitor cocktail for 20 minutes on ice. Protein extracts (50 μg) were separated by SDS-PAGE electrophoresis, transferred to nitrocellulose membranes (Schleicher & Schuell), and incubated overnight with primary antibodies to p53, HDM2, p21, and β-actin (all from Santa Cruz Biotechnology). The blots were developed using ECL plus detection system (Amersham Biosciences) and exposed to Kodak imaging films (Kodak BioMax). Images were quantified using ImageJ software (NIH).
Figure S.5. Detection of bis-peptide 1 and Nutlin-3 in HepG2 (left) and Huh7 (right) cells. The concentration of each compound is given in μM and the three proteins (HDM2, p53 and p21) bands are […]

[2] = molecular target: T1, HDM2_25–117 (Homo sapiens, UniProt Q00987); assay: direct binding fluorescence polarization assay; conditions: for fluorescence polarization: oligomer 10 nM, three independent replicates
T1 construct: unnamed fusion partner ('fusion protein'); made in house; host or cells: E. coli BL21
Experimental: To measure the binding affinity of the functionalized spiroligomers to HDM2 we utilized a direct binding fluorescence polarization assay. The binding of the fluorescein labeled spiroligomers was measured at 10 nM spiroligomer in the presence of varying concentrations of HDM2_25–117 [31]. […] The initial screen of spiroligomers including 3–7 was carried out on the spiroligomer backbone containing all (S) stereochemistry to identify appropriate functional groups to mimic the side chains of Phe19, Trp23 and Leu26 of the p53 helix.
HDM2 Protein Expression. A fusion protein consisting of residues 1-140 (the plasmid was a generous gift from the lab of Neil Zondlo, University of Delaware) was prepared by over-expression.4 Plasmids were used to transform chemically competent E-coli BL21 Cells (Novagen), and a single colony was used to inoculate 2×4 mL LB media culture tubes containing 0.1 mg/mL ampicillin, at 37 °C overnight. These overnight cultures were used to inoculate a 1 L culture of TB media containing 0.1 mg/ml ampicillin. The culture was incubated at 37 °C with shaking at 250 rpm until the optical density at 600 nm reached to 0.9 absorbance units. Protein overexpression was then induced by the addition of 20% isopropyl β-D-thiogalactoside (IPTG) to 0.4 mM final concentration. The culture was then grown for additional 5 hours at 30 °C. Then cells were harvested at 4 °C by centrifugation at 4500 rpm for 20 min.
The cell pellet was resuspended in chilled 1x Binding Buffer (0.5 M NaCl, 20 mMTris-Hcl, 5 mM imidazole, pH 7.9), frozen and stored at -80 °C until protein purification.
Protein Purification. The frozen cell pellet was thawed at 4 °C and lysed by sonication for 2 minutes with 10 sec on and 20 sec off. Cell debris was pelleted by centrifugation for 30 min at 15000 g, 4 °C and the supernatant was filtered through a 0.2 μm syringe filter. A column was prepared using 2 mL Novagen His-Bind suspended resin and resin was washed with 3 volumes DI water. The flow rate maintained was not more than 0.5 ml/min throughout the purification.
The resin was charged with 5 vol 1x Charge Buffer (50 mM NiSO4) and then equilibrated with 3 vol 1x Binding Buffer (5 mM imidazole). After loading the column with prepared extract, the resin was washed with 10 vol 1x Binding Buffer and then with 6 vol 1x Wash Buffer (10 mM imidazole). Protein was then eluted with 6 vol 1x Elution Buffer (1 M imidazole). The eluate was captured in fractions of 0.5 ml. Fractions were assayed with Coomasie blue and desired fractions were combined and dialyzed using spectra/por 6 Dialysis Membranes of 10,000 MWCO (Spectrum Laboratories) in PBS (pH 7.4, 5 mM EDTA and 0.5 mM DTT) for overnight.
The resulting protein was characterized by SDS-PAGE (4-20% gradient gel) for purity analysis and concentrations were measured by UV analysis.
Fresh protein was used immediately for protein binding experiments. […]
Direct Binding Fluorescence Polarization Experiments. Fluorescence polarization experiments were undertaken to assess the ability of spiroligomers to bind HDM2, a protein with hydrophobic cleft that binds the p53 N-terminal helical domain. Fluoresceinated oligomers (conc. of 10 nM) were incubated for 30 minutes at room temperature with sequential dilutions of […]

[3] = Huh7, 2, 5, 10 and 20 µM, 17 hours, 37°C

T1 sequence (Q00987 25-117): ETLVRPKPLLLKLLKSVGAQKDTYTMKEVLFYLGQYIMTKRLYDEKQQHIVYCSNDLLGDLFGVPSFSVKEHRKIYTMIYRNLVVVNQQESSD

`CC(C)CN1C(=O)[C@@H]2C[C@@]3(CN2C(=O)[C@@]12C[C@H]1C(=O)N(Cc4ccc(Cl)c(Cl)c4)[C@]4(C[C@@H]5C(=O)N[C@@H](CCc6ccccc6)C(=O)N5C4)C(=O)N1C2)NC(=O)[C@@H](CCCCNC(=S)Nc1ccc2c(c1)C(=O)OC21c2ccc(O)cc2Oc2cc(O)ccc21)NC3=O` [Compound 1] was tested, and the “p53Y220C levels with time” value ([1]; Huh7, 15 µM, harvested at 2, 4, 6, 8, 12 and 24 hours) was “no change in p53Y220C levels with time; also recorded: no effect on p53Y220C levels”, the p21 levels [1, 3] was “did not change” and the p53Y220C levels [1, 3] was “did not change”. The “HDM2 levels relative to control cells” value ([1]; Huh7, 2, 5, 10 and 20 µM, 17 hours, 37°C, dose-dependent) was “more than 30 fold”, the “increase in affinity for HDM2” value ([2]; 1 versus 9, differing only in the stereocenter of the lysine residue) was roughly 17 fold and the fluorescence polarization ([2]; [hDM2] 0.08106232 nM) was 68. 58 millipolarization and 68. 27 millipolarization and 70. 47 millipolarization. The fluorescence polarization ([2]; [hDM2] 0.1621246 nM) was 65. 92 millipolarization and 65. 99 millipolarization and 65. 14 millipolarization, the fluorescence polarization ([2]; [hDM2] 0.3242493 nM) was 75. 62 millipolarization and 76. 93 millipolarization and 62. 45 millipolarization and the fluorescence polarization ([2]; [hDM2] 0.6484985 nM) was 76. 88 millipolarization and 65. 12 millipolarization and 66. 54 millipolarization. For the same compound, the fluorescence polarization ([2]; [hDM2] 1.296997 nM) was 74. 46 millipolarization and 61. 79 millipolarization and 70. 28 millipolarization, the fluorescence polarization ([2]; [hDM2] 2.593994 nM) was 69. 71 millipolarization and 64. 6 millipolarization and 67. 34 millipolarization and the fluorescence polarization ([2]; [hDM2] 5.187988 nM) was 68. 52 millipolarization and 66. 82 millipolarization and 65. 52 millipolarization. For the same compound, the fluorescence polarization ([2]; [hDM2] 10.37598 nM) was 78. 3 millipolarization and 73. 95 millipolarization and 76. 62 millipolarization, the fluorescence polarization ([2]; [hDM2] 20.75195 nM) was 75. 45 millipolarization and 72. 99 millipolarization and 76. 91 millipolarization and the fluorescence polarization ([2]; [hDM2] 41.50391 nM) was 82. 2 millipolarization and 90. 13 millipolarization and 83. 56 millipolarization. For the same compound, the fluorescence polarization ([2]; [hDM2] 83.00781 nM) was 90. 07 millipolarization and 92. 68 millipolarization and 90. 31 millipolarization, the fluorescence polarization ([2]; [hDM2] 166.0156 nM) was 123. 93 millipolarization and 122. 78 millipolarization and 128. 68 millipolarization and the fluorescence polarization ([2]; [hDM2] 332.0313 nM) was 176. 96 millipolarization and 168. 11 millipolarization and 165. 21 millipolarization. The fluorescence polarization ([2]; [hDM2] 664.0625 nM) was 219. 16 millipolarization and 207. 64 millipolarization and 219. 81 millipolarization, the fluorescence polarization ([2]; [hDM2] 1328.125 nM) was 249. 64 millipolarization and 254. 41 millipolarization and 260. 31 millipolarization and the fluorescence polarization ([2]; [hDM2] 2656.25 nM) was 276. 63 millipolarization and 280. 28 millipolarization and 279. 87 millipolarization. For the same compound, the fluorescence polarization ([2]; [hDM2] 5312.5 nM) was 283. 09 millipolarization and 283. 22 millipolarization and 294. 56 millipolarization, the fluorescence polarization ([2]; [hDM2] 10625 nM) was 279. 23 millipolarization and 291. 88 millipolarization and 291. 17 millipolarization and the fluorescence polarization ([2]; [hDM2] 21250 nM) was 289. 83 millipolarization and 291. 58 millipolarization and 284. 9 millipolarization. For the same compound, the fluorescence polarization ([2]; [hDM2] 42500 nM) was 280. 74 millipolarization and 287. 71 millipolarization and 288. 59 millipolarization, the “difference in binding to HDM2” value ([2]; epimers 12 and 1) was “four-fold” and the Kd ([2]; fluorescein labeled ligand at 10 nM, varying HDM2, read-out: Kd (HDM2)) was 400 nM.

From paper PMC3475717, “A Spiroligomer α-Helix Mimic That Binds HDM2, Penetrates Human Cells and Stabilizes HDM2 in Cell Culture” (PLoS ONE, 2012)
